Laboratory results reported in article PMC11905058, “Novel Leech Antimicrobial Peptides, Hirunipins: Real‐Time 3D Monitoring of Antimicrobial and Antibiofilm Mechanisms Using Optical Diffraction Tomography” (Advanced Science, 2025).
In brackets after ≈: the same amount, converted by molar mass.

How the values were obtained:
[1] = test system: Staphylococcus epidermidis [KCTC 1917]; assay type: cell-based; conditions: CLSI broth microdilution in MHB, 1×10^6 CFU/well, 37 °C, 24 h, optical density
Protocol: (§1) The MICs of the peptides were measured by the Clinical and Laboratory Standards Institute (CLSI) broth microdilution method, as outlined in a previous study.^[ [26], [27] ^]
(§2) Minimal Inhibitory Concentrations (MICs): Bacteria were grown to mid-logarithmic phase and diluted in Mueller-Hinton broth (MHB) (Difco). The bacterial suspension (1×10^6 CFU/well) was added to a 96-well microtiter plate along with a two-fold serial dilution of samples. The plate was incubated at 37 °C for 24 hours and the bacterial growth inhibition was assessed by measuring the optical density using an ELISA plate reader. The minimum inhibitory concentration (MIC) was defined as the lowest concentration of samples that prevented visible bacterial growth.

[2] = test system: Escherichia coli [KCTC 1682]; assay type: cell-based; conditions: CLSI broth microdilution in MHB, 1×10^6 CFU/well, 37 °C, 24 h, optical density
Protocol: as §1, §2

[3] = test system: Pseudomonas aeruginosa [KCTC 1637]; assay type: cell-based; conditions: CLSI broth microdilution in MHB, 1×10^6 CFU/well, 37 °C, 24 h, optical density
Protocol: as §1, §2

[4] = test system: Staphylococcus aureus [KCTC1621]; assay type: cell-based; conditions: CLSI broth microdilution in MHB, 1×10^6 CFU/well, 37 °C, 24 h, optical density
Protocol: as §1, §2

E. coli (KCTC 1682) [5] = experiment: PI influx assay by flow cytometry; assay type: cell-based, Escherichia coli; conditions: 16 µg mL^−1, 60 min, 37 °C, PI 10 µg/mL, untreated 6.9%
Protocol: (§3) Damage to membrane integrity induced by the peptides was evaluated by flow cytometry of E. coli (KCTC 1682) and S. aureus (KCTC 1621) cells stained with the membrane‐impermeable dye PI, as previously described.^[ [26], [27] ^]
(§4) Flow Cytometry Analysis: E. coli (KCTC 1682) and S. aureus (KCTC 1621) were cultured in LB broth until they reached mid-log-phase, then washed and resuspended in PBS to a density of 2 × 10^5 CFU/mL. The bacterial suspension was incubated with the samples and 10 µg/mL of propidium iodide (PI), a fluorescent dye, at 37 °C for 1 hour in the dark. The samples were then centrifuged and washed twice in PBS to remove any excess dye. The fluorescence of PI, which indicates membrane damage, was measured by FACS flow cytometer (Agilent, ACEA Bioscience Inc.) using a laser excitation wavelength of 488 nm.

S. aureus (KCTC 1621) [6] = experiment: PI influx assay by flow cytometry; assay type: cell-based, Staphylococcus aureus; conditions: 16 µg mL^−1, 60 min, 37 °C, PI 10 µg/mL, untreated 9.5%
Protocol: as §3, §4

MDRE (328-84) = assay type: cell-based, Enterobacter cloacae; conditions: clinically isolated multidrug-resistant Enterobacter cloacae; broth microdilution
Protocol: as §1
Microbial Strains and Cell Lines: Multiple bacterial strains were used in this study. Standard stains included Escherichia coli (KCTC 1682), Pseudomonas aeruginosa (KCTC 1637), Staphylococcus aureus (KCTC1621) and Staphylococcus epidermidis (KCTC 1917) supplied from the Korean Collection for Type Cultures (KCTC) of the Korea Research Institute of Bioscience and Biotechnology (KRIBB). Clinically isolated multidrug-resistant bacteria included multidrug-resistant Klebsiella pneumonia (MDRKP 328-83), multidrug-resistant Acinetobacter baumannii (MDRAB 329-53), multidrug-resistant Pseudomonas aeruginosa (MDRPA 314-69), multidrug-resistant Enterobacter cloacae (MDRE 328-84) and multidrug-resistant Escherichia coli (MDREC 329-66) provided from Hospital of Chosun University, Korea. All bacterial strains were stored in 20% glycerol at −80 °C. For the subsequent experiments, the bacteria were recovered and cultured in the corresponding enrichment broth at 37 °C. The mouse macrophage RAW264.7, mouse fibroblast NIH-3T3 and human keratinocyte HaCat cells were cultured in Dulbecco’s modified Eagle’s medium (DMEM), supplemented with 10% (v/v) of fetal bovine serum (Sigma-Aldrich), 100 U/mL of penicillin and 0.1 mg/mL of streptomycin, at 37 °C in the presence of 5% CO2
as §2

E. coli (KCTC 1682) [7] = experiment: Multipassage drug resistance study; assay type: cell-based, Escherichia coli; conditions: continuous exposure at sub-MIC (0.5×MIC)
Protocol: The MICs of hirunipin 2 and antibiotics were determined, and the concentration of each sub‐MIC (0.5×MIC) of E. coli (KCTC 1682) was diluted to 1 × 10^6 CFU mL^−1 with MHB for the next passaged MIC determination. This procedure was repeated fifteen times. Ciprofloxacin and tetracycline were used as the controls.

MDRAB (329-53) = test system: MDRAB (329-53)
Protocol: Synergy testing by checkerboard assay: Briefly, each 96-well microtiter plate was inoculated with two-fold serial dilutions of two antibiotics, ranging from 1/8 MIC to 2 MIC, such that one antibiotic was inoculated in the columns and the other in the rows. Then, MDRAB (329-53) cells were inoculated at a concentration of 1× 10^6 CFU/mL. The plates were incubated overnight under static conditions and observed visually.

S. aureus (KCTC 1621) [8] = experiment: Membrane depolarization assay (diSC3-5); assay type: cell-based, Staphylococcus aureus; conditions: diSC3-5 fluorescence, monitored 500 s
Protocol: The FL dye diSC3‐5 (3,3′‐dipropylthiadicarbocyanine iodide) was utilized to assess the depolarizing impact of peptides on the cytoplasmic membrane of S. aureus (KCTC 1621), following a previously established method.^[ [26], [27] ^]
Membrane Depolarization Assay: Briefly, mid-log phase S. aureus (KCTC 1621) was harvested and washed three times with 5 mM HEPES buffer (pH 7.4, containing 20 mM glucose), and resuspended to an OD600 of 0.05 in the same buffer. The cell suspension was incubated with 0.4 μM diSC3-5 for 90 min such that most of the dye molecules gathered at the cytoplasmic membrane. To equilibrate the cytoplasmic and external K^+ concentrations, KCl was added to the cell suspension containing diSC3-5 to obtain a final concentration of 100 mM, followed by incubating the cells at room temperature for 15−30 min, with peptide aliquots added to 2 mL of suspension. The fluorescence was recorded using a model RF-5301 PC fluorescence spectrophotometer (Shimadzu) at an excitation wavelength of 622 nm and an emission wavelength of 670 nm.

[9] = antibiotic in combination with hirunipin 2
[10] = in combination with hirunipin 2

| Compound | Minimum inhibitory concentration (MIC), Staphylococcus epidermidis [KCTC 1917] [1] [µg/mL] | Minimum inhibitory concentration (MIC), Escherichia coli [KCTC 1682] [2] [µg/mL] | Minimum inhibitory concentration (MIC), Pseudomonas aeruginosa [KCTC 1637] [3] [µg/mL] | Minimum inhibitory concentration (MIC), Staphylococcus aureus [KCTC1621] [4] [µg/mL] | percentage of PI-positive cells, E. coli (KCTC 1682) (E. coli (KCTC 1682) [5]) [%] | percentage of PI-positive cells, S. aureus (KCTC 1621) (S. aureus (KCTC 1621) [6]) [%] | Minimum inhibitory concentrations, MDRE (328-84) (MDRE (328-84)) [µg/mL] | fold-change in the MICs after 15 passages (E. coli (KCTC 1682) [7]) [fold] | FICI: fractional inhibitory concentration index, FICA + FICB (MDRAB (329-53); [9]) | Interpretation of FICI (MDRAB (329-53); [9]) | MICA: MIC of antibiotic alone (MDRAB (329-53); checkerboard, MDRAB, 1×10^6 CFU/mL) [µg/mL] | FICA: fractional inhibitory concentration of antibiotic ([A] / MICA) (MDRAB (329-53); [10]) | [A]: MIC of antibiotic in combination (MDRAB (329-53); [10]) [µg/mL] | effect on membrane potential (in words) (S. aureus (KCTC 1621) [8]) |
| --- | --- | --- | --- | --- | --- | --- | --- | --- | --- | --- | --- | --- | --- | --- |
| CC[C@H](C)[C@H](NC(=O)CN)C(=O)NCC(=O)N[C@@H](C)C(=O)N[C@H](C(=O)N[C@@H](CC(C)C)C(=O)N[C@@H](CCCCN)C(=O)N[C@H](C(=O)N[C@@H](CC(C)C)C(=O)N[C@H](C(=O)N[C@H](C(=O)NCC(=O)N[C@@H](CC(C)C)C(=O)N1CCC[C@H]1C(=O)N[C@@H](C)C(=O)N[C@@H](CC(C)C)C(=O)N[C@H](C(=O)N[C@@H](CO)C(=O)N[C@@H](Cc1c[nH]c2ccccc12)C(=O)N[C@H](C(=O)N[C@@H](CCCCN)C(=O)N[C@@H](CCCNC(=N)N)C(=O)N[C@@H](CCCCN)C(=O)N[C@@H](CCCNC(=N)N)C(=O)N[C@@H](CCC(N)=O)C(=O)N[C@@H](CCC(N)=O)C(N)=O)[C@@H](C)CC)[C@@H](C)CC)[C@@H](C)O)[C@@H](C)O)C(C)C)C(C)C [Melittin, reference compound] | 32 (≈ 11.2 µM) | 32 (≈ 11.2 µM) | 32 (≈ 11.2 µM) | 16 (≈ 5.62 µM) | 91.6 | 99.5 | 64 (≈ 22.5 µM) | – | – | – | – | – | – | – |
| CN(C)[C@@H]1C(O)=C(C(N)=O)C(=O)[C@@]2(O)C(O)=C3C(=O)c4c(O)cccc4[C@@](C)(O)[C@H]3C[C@@H]12 [TET, Tetracycline] | – | – | – | – | – | – | – | 32 | 0.25 | synergy (FICI ≤ 0.5 was interpreted as synergy) | 16 | 0.125 | 2 | – |
| Buforin‐2 [Buforin-2] | – | – | – | – | 7.6 | 9.6 | – | – | – | – | – | – | – | did not affect membrane potential |
